The source of these data is patent US20110117054A1, “USE OF RIBAVIRIN IN BLOOD COAGULATION DISORDER” (National University Corporation Nagoya University, priority 2007, published 2011).

In the test the test system is HCV. Put plainly: HCV eradication in HCV positive hemophilia patients (Working Example 6). Conditions: Patient No. 6, interferon-α-2b alone prior to administration in this example. Type of test: in vivo, hepatitis C virus. Here is the method: In Table 5, the severity of hemophilia was rated as mild when the level of coagulation factors exceeded 5%, moderate when this level was from 1 to 5%, and severe when this level was below 1%. The HCV-RNA level was measured with an Amplicor HCV Assay, version 2 (Roche) at the start of administration. The genotype of the HCV virus was determined from the base sequence of the 5′-UTR region thereof. HCV eradication was indicated as “yes” when HCV-RNA viruses were not detected for 24 weeks following the end of administration. The HIV infection state was determined by the HIV antibodies using a particle agglutination assay kit (Fujirebio Inc.).

In the case of interferon-α-2b, the HCV eradication result is given as “not eradicated”.
